Source: PubChem BioAssay (NCI)
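The compound was tested at five concentrations on cells cultured in 96-well plates, with a 48-hour exposure period. TGI is the concentration that stops growth completely.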

Columns and labels:
Assay in all cases: NCI-60 cell line screen, 48 h
[1] = test system: 786-0 renal
[2] = test system: UACC-257 melanoma
[3] = test system: NCI-H23 lung
[4] = test system: SNB-75 CNS
[5] = test system: MDA-MB-435
[6] = test system: MOLT-4 leukemia
[7] = test system: HOP-92 NSCLC
[8] = test system: MALME-3M melanoma
[9] = test system: OVCAR-4 ovarian
[10] = test system: ACHN renal
[11] = test system: SK-OV-3 ovarian
[12] = test system: UO-31 renal
[13] = test system: A498 renal
[14] = test system: COLO 205 colon
[15] = test system: MCF7 breast
[16] = test system: MDA-MB-231 breast
[17] = test system: LOX IMVI melanoma
[18] = test system: M14 melanoma
[19] = test system: IGROV1 ovarian
[20] = test system: RPMI-8226 leukemia
[21] = test system: PC-3 prostate
[22] = test system: MDA-N
[23] = test system: SNB-19 CNS
[24] = test system: CAKI-1 renal
[25] = test system: A549 NSCLC
[26] = test system: HCT-15 colon
[27] = test system: KM12 colon
[28] = test system: SK-MEL-2 melanoma
[29] = test system: SR leukemia
[30] = test system: DU-145 prostate
[31] = test system: OVCAR-3 ovarian
[32] = test system: EKVX NSCLC
[33] = test system: HCC-2998 colon
[34] = test system: HL-60(TB) leukemia
[35] = test system: NCI/ADR-RES ovarian
[36] = test system: UACC-62 melanoma
[37] = test system: NCI-H522 lung
[38] = test system: SF-295 CNS
[39] = test system: TK-10 renal
[40] = test system: NCI-H226 lung
[41] = test system: HCT-116 colon
[42] = test system: K-562 leukemia
[43] = test system: SK-MEL-5 melanoma
[44] = test system: RXF 393 renal
[45] = test system: U251 CNS
[46] = test system: SW-620 colon
[47] = test system: SN12C renal
[48] = test system: NCI-H460 lung
[49] = test system: SF-539 CNS
[50] = test system: OVCAR-5 ovarian
[51] = test system: OVCAR-8 ovarian
[52] = test system: CCRF-CEM leukemia
[53] = test system: BT-549 breast
[54] = test system: T-47D breast
[55] = test system: HS 578T breast
[56] = test system: SK-MEL-28 melanoma
[57] = test system: HT29 colon
[58] = test system: SF-268 CNS

## C=C1c2nc3ccccc3n2C=C(c2ccccc2)N1c1ccccc1
[1]
  TGI: > 100 µM
[2]
  TGI: > 100 µM
[3]
  TGI: > 100 µM
[4]
  TGI: > 100 µM
[5]
  TGI: > 100 µM
[6]
  TGI: > 100 µM
[7]
  TGI: > 100 µM
[8]
  TGI: > 100 µM
[9]
  TGI: > 100 µM
[10]
  TGI: > 100 µM
[11]
  TGI: > 100 µM
[12]
  TGI: > 100 µM
[13]
  TGI: > 100 µM
[14]
  TGI: > 100 µM
[15]
  TGI: > 100 µM
[16]
  TGI: > 100 µM
[17]
  TGI: > 100 µM
[18]
  TGI: > 100 µM
[19]
  TGI: > 100 µM
[20]
  TGI: > 100 µM
[21]
  TGI: > 100 µM
[22]
  TGI: > 100 µM
[23]
  TGI: > 100 µM
[24]
  TGI: > 100 µM
[25]
  TGI: > 100 µM
[26]
  TGI: 51.9 µM
[27]
  TGI: 59.8 µM
[28]
  TGI: > 100 µM
[29]
  TGI: > 100 µM
[30]
  TGI: > 100 µM
[31]
  TGI: > 100 µM
[32]
  TGI: > 100 µM
[33]
  TGI: 28.8 µM
[34]
  TGI: > 100 µM
[35]
  TGI: > 100 µM
[36]
  TGI: > 100 µM
[37]
  TGI: > 100 µM
[38]
  TGI: > 100 µM
[39]
  TGI: > 100 µM
[40]
  TGI: > 100 µM
[41]
  TGI: > 100 µM
[42]
  TGI: > 100 µM
[43]
  TGI: 83.3 µM
[44]
  TGI: > 100 µM
[45]
  TGI: > 100 µM
[46]
  TGI: > 100 µM
[47]
  TGI: > 100 µM
[48]
  TGI: 79.6 µM
[49]
  TGI: > 100 µM
[50]
  TGI: > 100 µM
[51]
  TGI: > 100 µM
[52]
  TGI: > 100 µM
[53]
  TGI: 98.5 µM

## CCCCCCCCCCCCCCCCCCOCC(CO[P+](=O)O)OCCCCCCCCCCCCCCCCCC (stereo not drawn)
[1]
  TGI: > 50 µM
[54]
  TGI: > 50 µM
[2]
  TGI: > 50 µM
[55]
  TGI: > 50 µM
[4]
  TGI: > 50 µM
[5]
  TGI: > 50 µM
[6]
  TGI: > 50 µM
[7]
  TGI: > 50 µM
[9]
  TGI: > 50 µM
[11]
  TGI: > 50 µM
[13]
  TGI: > 50 µM
[14]
  TGI: > 50 µM
[56]
  TGI: > 50 µM
[15]
  TGI: > 50 µM
[16]
  TGI: > 50 µM
[17]
  TGI: > 50 µM
[18]
  TGI: > 50 µM
[19]
  TGI: > 50 µM
[20]
  TGI: > 50 µM
[21]
  TGI: > 50 µM
[22]
  TGI: > 50 µM
[23]
  TGI: > 50 µM
[24]
  TGI: > 50 µM
[25]
  TGI: > 50 µM
[26]
  TGI: > 50 µM
[57]
  TGI: > 50 µM
[27]
  TGI: > 50 µM
[28]
  TGI: > 50 µM
[29]
  TGI: > 50 µM
[30]
  TGI: > 50 µM
[31]
  TGI: > 50 µM
[32]
  TGI: > 50 µM
[33]
  TGI: > 50 µM
[34]
  TGI: > 50 µM
[35]
  TGI: > 50 µM
[37]
  TGI: > 50 µM
[39]
  TGI: > 50 µM
[40]
  TGI: > 50 µM
[41]
  TGI: > 50 µM
[42]
  TGI: > 50 µM
[43]
  TGI: > 50 µM
[44]
  TGI: > 50 µM
[45]
  TGI: > 50 µM
[46]
  TGI: > 50 µM
[47]
  TGI: > 50 µM
[48]
  TGI: > 50 µM
[49]
  TGI: > 50 µM
[50]
  TGI: > 50 µM
[58]
  TGI: > 50 µM
[51]
  TGI: > 50 µM
